Columns and labels:
Assay in all cases: relative viability (nuclei count vs DMSO), 5 days (fraction); higher = more cells survive
Imatinib + Luminespib = compound: Cc1ccc(NC(=O)c2ccc(CN3CCN(C)CC3)cc2)cc1Nc1nccc(-c2cccnc2)n1 [Imatinib] + CCNC(=O)c1noc(-c2cc(C(C)C)c(O)cc2O)c1-c1ccc(CN2CCOCC2)cc1 [Luminespib] (partner 0.01 µM)
How it was run: (§1)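 Dosing by pin tool came one day after lung cancer cell lines were seeded in 1536-well plates, using either one drug or a fixed anchor-drug dose plus five library-drug doses (not always all listed) in √10 steps. After 5 days, nuclei were counted on 4× images. Relative viability is treated-well nuclei count divided by vehicle-well nuclei count, and values are medians of duplicate plates.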

Imatinib + Crizotinib = compound: Cc1ccc(NC(=O)c2ccc(CN3CCN(C)CC3)cc2)cc1Nc1nccc(-c2cccnc2)n1 [Imatinib] + C[C@@H](Oc1cc(-c2cnn(C3CCNCC3)c2)cnc1N)c1c(Cl)ccc(F)c1Cl [Crizotinib] (partner 1 µM)
How it was run: as §1

Imatinib + Trametinib = compound: Cc1ccc(NC(=O)c2ccc(CN3CCN(C)CC3)cc2)cc1Nc1nccc(-c2cccnc2)n1 [Imatinib] + CC(=O)Nc1cccc(-n2c(=O)n(C3CC3)c(=O)c3c(Nc4ccc(I)cc4F)n(C)c(=O)c(C)c32)c1 [Trametinib] (partner 0.02 µM)
How it was run: as §1

Imatinib + Vorinostat = compound: Cc1ccc(NC(=O)c2ccc(CN3CCN(C)CC3)cc2)cc1Nc1nccc(-c2cccnc2)n1 [Imatinib] + O=C(CCCCCCC(=O)Nc1ccccc1)NO [Vorinostat] (partner 1 µM)
How it was run: as §1

Cell Line | relative viability (Imatinib + Luminespib; first compound 0.02 µM) | relative viability (Imatinib + Luminespib; first compound 0.2 µM) | relative viability (Imatinib + Luminespib; first compound 0.6325 µM) | relative viability (Imatinib + Luminespib; first compound 2 µM) | relative viability (Imatinib + Crizotinib; first compound 0.2 µM) | relative viability (Imatinib + Crizotinib; first compound 0.6325 µM) | relative viability (Imatinib + Crizotinib; first compound 2 µM) | relative viability (Imatinib + Trametinib; first compound 0.02 µM) | relative viability (Imatinib + Trametinib; first compound 0.06325 µM) | relative viability (Imatinib + Trametinib; first compound 0.2 µM) | relative viability (Imatinib + Trametinib; first compound 0.6325 µM) | relative viability (Imatinib + Trametinib; first compound 2 µM) | relative viability (Imatinib + Vorinostat; first compound 0.02 µM) | relative viability (Imatinib + Vorinostat; first compound 0.06325 µM) | relative viability (Imatinib + Vorinostat; first compound 0.6325 µM) | relative viability (Imatinib + Vorinostat; first compound 2 µM) | relative viability (Imatinib + Crizotinib; first compound 0.02 µM) | relative viability (Imatinib + Vorinostat; first compound 0.2 µM) | relative viability (Imatinib + Crizotinib; first compound 0.06325 µM) | relative viability (Imatinib + Luminespib; first compound 0.06325 µM)
201T | 1.09 | 1.11 | 0.96 | 1.03 | 1.09 | 0.993 | 1.02 | 0.694 | 0.697 | 0.738 | 0.681 | 0.7 | 0.996 | 0.405 | 0.954 | 0.984 |  |  |  | 
A-427 | 1.06 | 0.868 | 0.903 | 0.9 | 0.993 | 0.755 |  | 0.745 | 0.786 | 0.757 | 0.76 | 0.712 |  |  |  |  | 0.981 |  |  | 
ABC-1 | 0.911 | 0.445 | 0.326 |  | 1.43 | 1.15 | 1.07 |  |  |  |  |  | 1.21 |  | 1.02 | 1.24 | 1.34 | 1.37 |  | 
BEN | 0.402 | 0.29 | 0.355 | 0.156 | 1 | 0.762 | 0.93 | 1.09 | 1.02 | 1.05 | 1.1 | 1.1 | 0.526 | 0.654 | 0.547 | 0.556 | 1.04 | 0.634 | 0.847 | 
CAL-12T | 0.365 | 0.363 | 0.397 | 0.198 | 1.17 | 0.624 | 0.776 | 0.336 | 0.324 | 0.321 | 0.411 | 0.398 | 0.854 | 0.69 | 0.78 | 0.711 | 0.715 | 0.828 | 0.696 | 
COR-L23 | 0.806 | 0.79 | 0.802 | 0.654 | 0.809 | 0.685 | 0.632 | 0.636 | 0.494 | 0.72 | 0.697 | 0.648 | 0.523 | 0.519 | 0.399 | 0.41 | 0.807 | 0.424 | 0.73 | 0.709
COR-L 105 | 0.696 | 0.844 | 0.632 | 0.732 | 0.791 | 0.827 | 0.726 | 0.44 | 0.495 | 0.452 | 0.433 | 0.419 | 1.12 | 0.858 | 0.701 | 0.841 | 0.793 | 0.825 |  | 
Calu-6 |  |  |  |  | 0.985 | 0.818 | 0.652 |  |  |  |  |  |  |  |  |  | 1.09 |  | 1.17 | 
ChaGo-K-1 | 0.585 | 0.603 | 0.624 | 0.56 | 1.31 | 0.976 | 1.05 | 0.927 |  | 0.833 | 0.81 | 0.871 | 0.804 |  | 0.761 | 0.697 | 1.12 | 0.79 | 1.35 | 0.592
EBC-1 |  |  |  |  | 0.19 | 0.196 | 0.208 |  |  |  |  |  |  |  |  |  | 0.185 |  | 0.204 | 
EKVX |  | 0.817 | 0.926 | 0.847 | 1.08 | 0.886 |  | 0.376 |  | 0.295 | 0.325 |  | 0.665 |  | 0.881 | 0.699 | 0.937 | 0.753 | 0.861 | 0.712
EMC-BAC-2 | 1.25 | 1.36 | 1.14 |  | 0.872 | 0.685 | 0.707 | 0.887 | 1 | 0.904 | 1.07 | 0.853 | 0.514 | 0.497 | 0.522 | 0.514 | 0.825 | 0.492 | 0.761 | 1.5
EPLC-272H | 0.312 | 0.456 | 0.306 | 0.14 | 1.16 |  | 1.03 | 0.256 |  |  | 0.295 | 0.268 | 0.351 |  | 0.309 | 0.422 | 0.973 |  |  | 
H3255 | 0.922 |  | 0.865 | 0.777 | 0.816 | 0.889 | 0.793 | 0.589 |  | 0.635 | 0.616 | 0.609 | 0.873 |  |  | 0.588 | 0.636 | 0.765 |  | 0.415
HARA | 0.912 | 0.684 | 0.489 | 0.997 | 1.22 | 1.05 | 1.08 | 0.583 | 0.574 | 0.633 | 0.467 | 0.727 | 0.615 |  | 0.546 | 0.653 | 1.15 | 0.595 | 1.09 | 
HCC-15 | 0.311 | 0.358 | 0.33 | 0.297 | 0.9 | 0.792 | 0.817 | 0.399 |  | 0.411 | 0.406 | 0.359 | 0.857 |  | 0.854 | 0.765 | 0.683 | 0.917 | 0.779 | 
HCC-44 | 1.24 |  | 0.959 |  | 0.911 | 0.841 | 0.712 | 1.1 |  | 1.24 | 0.94 | 1.11 | 1.12 |  | 1.14 | 1.04 | 0.921 | 1.14 | 0.841 | 0.552
HCC-78 |  |  |  |  | 0.36 | 0.314 | 0.322 | 0.837 | 0.613 | 0.9 | 0.755 | 0.881 | 0.417 | 0.344 | 0.447 | 0.492 | 0.334 | 0.383 | 0.344 | 
HCC-366 |  |  |  |  | 0.777 | 0.334 | 0.399 | 0.423 | 0.346 | 0.45 | 0.321 | 0.432 | 0.421 | 0.307 | 0.369 | 0.368 | 1.19 | 0.467 |  | 
HCC-827 |  | 0.807 | 0.545 | 0.729 | 0.91 |  | 0.973 | 0.483 | 0.517 | 0.646 | 0.562 | 0.515 | 0.797 | 0.906 | 0.788 | 0.684 | 0.954 | 0.858 | 0.889 | 0.322
HOP-62 | 1.06 | 1.03 | 0.886 |  | 0.984 | 1.06 | 1 | 0.376 |  | 0.359 | 0.357 | 0.401 | 0.884 |  | 0.562 | 0.68 | 0.87 | 0.83 |  | 0.84

Source: the supplement of paper PMC10307832
